Structures are written as SMILES. Some results are limits rather than exact numbers.

What all share (format): biochemical
For one assay, the target named is TRKA kinase (Homo sapiens (Human), UniProt P04629). The assay can be described thus: Assay of small molecular compounds for inhibiting the activity of TRKA kinase (LANCE TR-FRET). The method in brief:
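LANCE TR-FRET with ULight-TK peptide; compounds pre-incubated 5 min with TRKA (2× solution 2 nM), then substrate/ATP added (4× mix: 400 nM peptide, 40 μM ATP). Reaction 60 min at room temperature in dark, 1% DMSO final; stopped, detection developed 60 min, signal read.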
Background: TR-FRET usually uses a lanthanide donor and a delayed reading to cut background.

In another assay the target is MER kinase (Homo sapiens (Human), UniProt Q12866). The assay can be described thus: Assay of small molecular compounds for inhibiting the activity of MER kinase (LANCE TR-FRET). The method in brief: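 MER kinase preincubated 5 min at RT with compound (11 points, 0.042-2500 nM final), then ULight-poly GT and ATP added (4× stocks 200 nM and 20 μM) for 60 min at RT, 1% DMSO. Phosphorylation detected by LANCE TR-FRET; IC50 from % inhibition versus controls.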

Another assay has as its target VEGFR-2 kinase (Homo sapiens (Human), UniProt P35968). In words: Assay of small molecular compounds for inhibiting the activity of VEGFR-2 kinase (LANCE TR-FRET). The following applies: read-out: VEGFR2 IC50. In outline: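 LANCE TR-FRET with human VEGFR-2 (2× stock 0.5 nM) preincubated 30 min with compound (final 2500 to 0.042 nM, 11-point 3-fold), then ULight-JAK-1 (Tyr1023) peptide/ATP added (4× stocks 200 nM/40 μM). Reaction 60 min room temperature, 4% DMSO; IC50 from inhibition-rate curve.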

Chain of MER kinase (Q12866 21-999): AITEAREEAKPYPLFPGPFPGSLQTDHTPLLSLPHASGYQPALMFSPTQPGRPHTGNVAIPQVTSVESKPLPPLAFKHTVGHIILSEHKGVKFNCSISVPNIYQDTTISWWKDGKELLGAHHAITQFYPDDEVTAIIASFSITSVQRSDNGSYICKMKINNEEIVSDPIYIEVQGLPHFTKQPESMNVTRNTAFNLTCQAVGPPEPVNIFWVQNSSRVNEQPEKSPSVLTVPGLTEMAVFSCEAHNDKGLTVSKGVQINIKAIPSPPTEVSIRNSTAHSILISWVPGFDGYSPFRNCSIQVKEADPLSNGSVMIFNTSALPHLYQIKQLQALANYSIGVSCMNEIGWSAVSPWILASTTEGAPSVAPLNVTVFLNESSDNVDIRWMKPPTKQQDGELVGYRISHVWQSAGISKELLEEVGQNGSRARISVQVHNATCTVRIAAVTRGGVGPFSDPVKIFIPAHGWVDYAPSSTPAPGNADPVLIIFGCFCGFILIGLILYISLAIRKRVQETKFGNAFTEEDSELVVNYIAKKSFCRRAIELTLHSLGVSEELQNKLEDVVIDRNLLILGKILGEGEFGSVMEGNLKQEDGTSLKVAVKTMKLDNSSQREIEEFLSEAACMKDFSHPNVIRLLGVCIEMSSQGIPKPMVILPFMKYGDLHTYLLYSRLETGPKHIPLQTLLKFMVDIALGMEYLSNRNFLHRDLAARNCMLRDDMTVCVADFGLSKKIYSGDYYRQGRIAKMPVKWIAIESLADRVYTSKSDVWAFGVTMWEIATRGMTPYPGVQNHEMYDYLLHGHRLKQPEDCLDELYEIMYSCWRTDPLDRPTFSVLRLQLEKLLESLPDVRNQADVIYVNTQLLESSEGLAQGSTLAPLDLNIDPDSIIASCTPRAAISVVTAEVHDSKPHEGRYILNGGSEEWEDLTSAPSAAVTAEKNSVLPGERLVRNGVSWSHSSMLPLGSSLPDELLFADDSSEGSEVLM
Chain of VEGFR-2 kinase (P35968 20-1356): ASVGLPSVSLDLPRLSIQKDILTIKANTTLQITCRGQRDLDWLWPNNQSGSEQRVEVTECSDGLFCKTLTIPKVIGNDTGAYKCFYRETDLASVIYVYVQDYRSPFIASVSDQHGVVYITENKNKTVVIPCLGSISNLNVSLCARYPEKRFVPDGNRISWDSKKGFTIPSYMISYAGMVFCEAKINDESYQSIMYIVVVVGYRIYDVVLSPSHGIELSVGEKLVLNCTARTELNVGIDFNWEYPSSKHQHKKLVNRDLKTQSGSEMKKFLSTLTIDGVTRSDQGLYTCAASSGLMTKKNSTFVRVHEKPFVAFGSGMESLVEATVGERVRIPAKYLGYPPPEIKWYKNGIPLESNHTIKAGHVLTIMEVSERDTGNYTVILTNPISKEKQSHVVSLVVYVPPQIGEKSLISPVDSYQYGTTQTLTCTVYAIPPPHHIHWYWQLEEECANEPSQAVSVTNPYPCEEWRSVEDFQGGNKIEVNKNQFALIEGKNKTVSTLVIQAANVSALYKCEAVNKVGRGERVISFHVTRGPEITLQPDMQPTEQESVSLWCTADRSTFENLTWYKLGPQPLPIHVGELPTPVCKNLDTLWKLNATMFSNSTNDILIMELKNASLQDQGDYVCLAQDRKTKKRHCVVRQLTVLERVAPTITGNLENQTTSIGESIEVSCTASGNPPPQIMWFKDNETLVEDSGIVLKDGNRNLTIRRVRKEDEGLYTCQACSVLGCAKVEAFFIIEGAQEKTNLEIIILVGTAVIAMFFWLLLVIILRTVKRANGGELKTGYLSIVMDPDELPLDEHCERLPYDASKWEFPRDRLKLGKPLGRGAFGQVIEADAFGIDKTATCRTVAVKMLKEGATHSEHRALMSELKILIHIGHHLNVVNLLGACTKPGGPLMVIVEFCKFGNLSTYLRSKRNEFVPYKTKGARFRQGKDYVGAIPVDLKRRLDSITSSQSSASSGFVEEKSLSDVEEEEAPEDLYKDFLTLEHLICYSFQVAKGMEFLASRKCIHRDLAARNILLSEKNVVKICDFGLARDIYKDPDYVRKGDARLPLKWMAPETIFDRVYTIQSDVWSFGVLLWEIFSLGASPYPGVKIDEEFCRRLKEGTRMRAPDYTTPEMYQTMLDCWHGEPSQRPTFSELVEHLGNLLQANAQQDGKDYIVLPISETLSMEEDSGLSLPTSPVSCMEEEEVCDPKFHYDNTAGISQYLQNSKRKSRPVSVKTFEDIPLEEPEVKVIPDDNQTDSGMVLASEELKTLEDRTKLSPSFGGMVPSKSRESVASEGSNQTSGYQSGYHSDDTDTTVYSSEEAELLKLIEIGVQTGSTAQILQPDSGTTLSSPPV
Chain of TRKA kinase (P04629 33-796): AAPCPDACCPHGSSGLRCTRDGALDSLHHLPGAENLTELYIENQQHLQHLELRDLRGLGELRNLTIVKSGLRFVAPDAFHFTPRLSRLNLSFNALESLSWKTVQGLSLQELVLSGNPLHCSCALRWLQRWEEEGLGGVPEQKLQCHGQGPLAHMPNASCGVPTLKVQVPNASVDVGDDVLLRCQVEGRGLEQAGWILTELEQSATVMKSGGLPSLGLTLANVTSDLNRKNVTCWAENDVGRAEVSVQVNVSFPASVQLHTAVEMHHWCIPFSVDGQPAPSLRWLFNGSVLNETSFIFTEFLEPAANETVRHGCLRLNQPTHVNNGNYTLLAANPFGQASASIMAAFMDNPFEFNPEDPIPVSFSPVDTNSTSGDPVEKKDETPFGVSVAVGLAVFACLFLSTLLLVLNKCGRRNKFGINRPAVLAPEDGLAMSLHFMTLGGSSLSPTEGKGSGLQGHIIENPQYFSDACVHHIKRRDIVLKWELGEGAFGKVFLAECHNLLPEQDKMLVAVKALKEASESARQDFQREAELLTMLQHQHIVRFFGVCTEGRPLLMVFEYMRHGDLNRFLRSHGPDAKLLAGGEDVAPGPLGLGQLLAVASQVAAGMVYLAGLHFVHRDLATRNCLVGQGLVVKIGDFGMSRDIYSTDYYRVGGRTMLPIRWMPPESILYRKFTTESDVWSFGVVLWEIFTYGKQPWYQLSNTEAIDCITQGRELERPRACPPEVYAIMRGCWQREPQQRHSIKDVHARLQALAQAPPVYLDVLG

For `CCOc1ccn(-c2ccc(F)cc2)c(=O)c1C(=O)Nc1ccc(Oc2ccnc3cc(OCCCN4CCC(C)(C)CC4)c4c(c23)OCCO4)c(F)c1` [Example 67, N-(4-((5-(3-(4,4-dimethylpiperidin-1-yl)propoxy)-2,3-dihydro-[1,4]dioxino[2,3-f]quinolin-10-yl)oxy)-3-fluorophenyl)-4-ethoxy-1-(4-fluorophenyl)-2-oxo-1,2-dihydropyridine-3-carboxamide], the IC50 (usually the concentration needed to halve the response being measured) against TRKA kinase was less than 50 nM; at MER kinase, not above 50 nM; on VEGFR-2 kinase, not above 50 nM.

Regarding `COCCn1cc(C(=O)Nc2ccc(Oc3ccnc4cc(OC)c5c(c34)OCCO5)c(F)c2)c(=O)n(-c2ccc(F)cc2)c1=O` [Example 46, N-(3-fluoro-4-((5-methoxy-2,3-dihydro-[1,4]dioxino[2,3-f]quinolin-10-yl)oxy)phenyl)-3-(4-fluorophenyl)-1-(2-methoxyethyl)-2,4-dioxo-1,2,3,4-tetrahydropyrimidine-5-carboxamide], the IC50 was 50 to 500 nM at TRKA kinase, not above 50 nM on MER kinase and 500 to 5000 nM on VEGFR-2 kinase.

Regarding `CC(C)n1cc(C(=O)Nc2ccc(Oc3ccnc4cc(OCCCN5CCS(=O)(=O)CC5)c5c(c34)OCCO5)c(F)c2)c(=O)n(-c2ccc(F)cc2)c1=O` [Example 76, N-(3-fluoro-4-((5-(3-(1,1-dioxidothiomorpholino)propoxy)-2,3-dihydro-[1,4]dioxino[2,3-f]quinolin-10-yl)oxy)phenyl)-3-(4-fluorophenyl)-1-isopropyl-2,4-dioxo-1,2,3,4-tetrahydropyrimidine-5-carboxamide], the half-maximal inhibitory concentration (IC50) on TRKA kinase was less than 50 nM; at MER kinase, not above 50 nM; on VEGFR-2 kinase, 500 to 5000 nM.

Regarding `CC(=O)N1CCN(CCCOc2cc3nccc(Oc4ccc(NC(=O)c5cn(C(C)C)c(=O)n(-c6ccc(F)cc6)c5=O)cc4F)c3c3c2OCCO3)CC1` [Example 75, N-(3-fluoro-4-((5-(3-(4-acetylpiperazin-1-yl)propoxy)-2,3-dihydro-[1,4]dioxino[2,3-f]quinolin-10-yl)oxy)phenyl)-3-(4-fluorophenyl)-1-isopropyl-2,4-dioxo-1,2,3,4-tetrahydropyrimidine-5-carboxamide], the figures for the IC50 at TRKA kinase and at MER kinase were less than 50 nM and not above 50 nM, respectively.

With `COc1cc2ncnc(Oc3ccc(NC(=O)c4cccn(-c5ccc(F)cc5)c4=O)cc3F)c2c2c1OCCO2` [Example 1, N-(3-fluoro-4-((5-methoxy-2,3-dihydro-[1,4]dioxino[2,3-f]quinazolin-10-yl)oxy)phenyl)-1-(4-fluorophenyl)-2-oxo-1,2-dihydropyridine-3-carboxamide], the IC50 is less than 50 nM on TRKA kinase, not above 50 nM at MER kinase and not above 50 nM on VEGFR-2 kinase.

On to `CCOc1ccn(-c2ccc(F)cc2)c(=O)c1C(=O)Nc1ccc(Oc2ccnc3cc(OCC(C)C)c4c(c23)OCCO4)c(F)c1` [Example 58, N-(4-((5-(isobutyloxy)-2,3-dihydro-[1,4]dioxino[2,3-f]quinolin-10-yl)oxy)-3-fluorophenyl)-4-ethoxy-1-(4-fluorophenyl)-2-oxo-1,2-dihydropyridine-3-carboxamide], for which the IC50 at TRKA kinase was 50 to 500 nM; against MER kinase it was not above 50 nM; on VEGFR-2 kinase, not above 50 nM.

As for `COc1cc2ncnc(Oc3ccc(NC(=O)c4c(OC)ccn(-c5ccc(F)cc5)c4=O)cc3F)c2c2c1OCCO2` [Example 2, N-(3-fluoro-4-((5-methoxy-2,3-dihydro-[1,4]dioxino[2,3-f]quinazolin-10-yl)oxy)phenyl)-1-(4-fluorophenyl)-4-methoxy-2-oxo-1,2-dihydropyridine-3-carboxamide], the IC50 is less than 50 nM at TRKA kinase, not above 50 nM against MER kinase and 50 to 500 nM at VEGFR-2 kinase.

On to `CCOc1ccn(-c2ccc(F)cc2)c(=O)c1C(=O)Nc1ccc(Oc2ccnc3cc(OC4CCOCC4)c4c(c23)OCCO4)c(F)c1` [Example 66, N-(4-((5-((tetrahydropyran-4-yl)oxy)-2,3-dihydro-[1,4]dioxino[2,3-f]quinolin-10-yl)oxy)-3-fluorophenyl)-4-ethoxy-1-(4-fluorophenyl)-2-oxo-1,2-dihydropyridine-3-carboxamide], for which the IC50 at TRKA kinase was less than 50 nM; against MER kinase, not above 50 nM; on VEGFR-2 kinase it was 50 to 500 nM.

Take `CC(C)n1cc(C(=O)Nc2ccc(Oc3ccnc4cc(OCCCN5CCCC5)c5c(c34)OCCO5)c(F)c2)c(=O)n(-c2ccc(F)cc2)c1=O` [Example 77, N-(3-fluoro-4-((5-(3-(pyrrolidin-1-yl)propoxy)-2,3-dihydro-[1,4]dioxino[2,3-f]quinolin-10-yl)oxy)phenyl)-3-(4-fluorophenyl)-1-isopropyl-2,4-dioxo-1,2,3,4-tetrahydropyrimidine-5-carboxamide]: the values for the IC50 against TRKA kinase, against MER kinase and at VEGFR-2 kinase were less than 50 nM, not above 50 nM and 50 to 500 nM, respectively.

On to `CCOc1cc2nccc(Oc3ccc(NC(=O)c4c(OCC)ccn(-c5ccc(F)cc5)c4=O)cc3F)c2c2c1OCCO2` [Example 62, N-(4-((5-ethoxy-2,3-dihydro-[1,4]dioxino[2,3-f]quinolin-10-yl)oxy)-3-fluorophenyl)-4-ethoxy-1-(4-fluorophenyl)-2-oxo-1,2-dihydropyridine-3-carboxamide], for which the values for the IC50 against TRKA kinase, against MER kinase and on VEGFR-2 kinase were less than 50 nM, not above 50 nM and not above 50 nM, respectively.

As to `CC(C)n1cc(C(=O)Nc2ccc(Oc3ccnc4cc(OCCCO)c5c(c34)OCCO5)c(F)c2)c(=O)n(-c2ccc(F)cc2)c1=O` [Example 79, N-(3-fluoro-4-((5-(3-hydroxypropoxy)-2,3-dihydro-[1,4]dioxino[2,3-f]quinolin-10-yl)oxy)phenyl)-3-(4-fluorophenyl)-1-isopropyl-2,4-dioxo-1,2,3,4-tetrahydropyrimidine-5-carboxamide], the values for the IC50 on TRKA kinase and against MER kinase were less than 50 nM and not above 50 nM, respectively.

Consider `COCCOc1cc2nccc(Oc3ccc(NC(=O)c4cn(C(C)C)c(=O)n(-c5ccc(F)cc5)c4=O)cc3F)c2c2c1OCCO2` [Example 43, N-(3-fluoro-4-((5-(2-methoxyethoxy)-2,3-dihydro-[1,4]dioxino[2,3-f]quinolin-10-yl)oxy)phenyl)-3-(4-fluorophenyl)-1-isopropyl-2,4-dioxo-1,2,3,4-tetrahydropyrimidine-5-carboxamide], for which the IC50 against TRKA kinase is 50 to 500 nM; at MER kinase it was not above 50 nM.

On to `COc1cn(-c2ccc(F)cc2C)nc1C(=O)Nc1ccc(Oc2ncnc3cc(OCCCN4CCOCC4)c4c(c23)OCCO4)c(F)c1` [Example 11, 1-(4-fluoro-2-methylphenyl)-N-(3-fluoro-4-((5-(3-morpholinopropoxy)-2,3-dihydro-[1,4]dioxino[2,3-f]quinazolin-10-yl)oxy)phenyl)-4-methoxy-1H-pyrazole-3-carboxamide], for which the IC50 against MER kinase and at VEGFR-2 kinase was 50 to 500 nM throughout.

`CCOc1cn(-c2ccc(F)cc2C)nc1C(=O)Nc1ccc(Oc2ncnc3cc(OCCCN4CCOCC4)c4c(c23)OCCO4)c(F)c1` [Example 12, 1-(4-fluoro-2-methylphenyl)-N-(3-fluoro-4-((5-(3-morpholinopropoxy)-2,3-dihydro-[1,4]dioxino[2,3-f]quinazolin-10-yl)oxy)phenyl)-4-ethoxy-1H-pyrazole-3-carboxamide]: the IC50 against MER kinase was in the range of 50 to 500 nM; at VEGFR-2 kinase, 500 to 5000 nM.

Source of the values: patent publication US12202835B2, “Substituted aromatic ring-linked dioxinoquinazolines and dioxinoquinolines as kinase inhibitors” (BEIJING SCITECH-MQ PHARMACEUTICALS LIMITED, priority 2018, dated 2025).
